According to patent US6638912B2, “Peptide compositions mimicking TGF-β activity” (The Regents of the University of California, priority 1995, dated 2003):
Like-named read-outs stand apart in the source and are kept apart here.

Tests used:
[1] = test system: human osteogenic sarcoma (HOS) cell line; assay: Gene expression in HOS cells (Northern analysis); type: cell-based
Description: (§1) Total cellular RNA was isolated using essentially the method described by Maniatis. Sambrook et al., Molecular Cloning: A Laboratory Marual, Cold Spring Harbor Laboratory Press, Second Edition (1989). Cells were lysed with 0.5% SDS and 0.1 potassium acetate. The lysate was extracted with phenol and centrifuiged at 5000 rpm for 15 minutes. The aqueous phase was precipitated with 2 volumes ethanol in 0.1 M Tris, pH 8.0 and 0.2 M NaCl. The pellet was resuspended and quantitated by measuring the ultraviolet absorbance at 260 nm. RNA purity was assessed by comparing the ultraviolet absorbance at 260 inm with that at 280 nm.
(§2) RNA (10 μg/lane) was electrophoresed at 3 to 4 v/cm through a 0.7% agarose, 2.2 M formaldehyde denaturing gel. RNA was transferred by capillary transfer to nylon membranes. RNA integrity, gel loading, and transfer efficiency were assessed by methylene blue stained 28S and 18 S bands. The filters were baked at 80° C. for 2 hours to immobilize the RNA. After baking, the filters were hybridized at 65° C. in 0.5 M NaPO4 buffer, pH 7.0, containing 1 mM EDTA, 7% sodium dodecyl sulfate, and 1% bovine serum albumin. cDNA probes were labeled with DDIG […] by the random primer method, using Klenow enzyme. Hybridization for 18 hours at 65° C. followed by washing, was performed.
(§3) Data were analyzed by scanning digoxigenin-dVTP according to manufacturer's procedure (Boehringer Mannheim Biochemica, DIG DNA labelling kit, Cat. No. 1175033).

[2] = test system: Mv-1-Lu mink lung epithelial cells; assay: Inhibition of DNA synthesis (3H-thymidine incorporation) and proliferation of Mv-1-Lu cells; type: cell-based; settings: 10−9 to 10−6 M range
Description: The effect of TGF-β and cytomodulin were evaluated by determining the rate of […]thyidine incorporation into total acid-insoluble DNA and cell number. See generally, Sampath et al., Journal of Biological Chemistry, 267, pp. 20352-20362 (1992). DNA synthesis rates were determined in triplicate cultures after 24 hour treatment with various concentrations (10−9 M to 10^−6M) of either TGF-β or cytomodulin (which was synthesized by the Merrifield method) by adding [methyl-^3H]thymidine (2 μCi/ml, 80 Ci/mmol) for 6 hours before the termination of the culture. Incorporation was terminated by aspiration of the medium, and after washing three times with phosphate-buffered saline, the trichloroacetic acid (10%)-precipitated radioactive DNA was extracted with 1.0% (w/v) sodium dodecyl sulfate, 0.1 M NaOH and quantitated by liquid scintillation counting. For cell number determination, 1×10^5 cells were plated in flasks in MEM containing 10% FBS, and after 24 hours, the growth medium was replaced with serum-free medium containing various conceptions of TGF-β and cytomodulin. Triplicate cultures were harvested every 24 hours for the duration of 7 days, and the cell number was determined by counting cells released by trypsin digestion in a fixed volume hemacytometer.
The numbers shown at the various concentration are the ratio of the inhibition rate of the peptide being tested over the inhibition rate of cytomodulin (SEQ ID NO: 1) at the same concentration.
Tests for bioactivity were conducted as described above for DNA inhibition.

TGF-β activity = assay: TGF-β like activity, overall statement, test not specified; type: cell-based
human dermal fibroblasts = assay: Gene expression in human dermal fibroblasts (Northern analysis); type: cell-based
Description: as §1, §2, §3

[3] = test system: NRK-49 F normal rat kidney fibroblasts; assay: Growth and colony formation by NRK-49 F fibroblasts in soft agar; type: cell-based
Description: The original assay for TGF-β, the ability to promote anchorage independent growth of normal fibroblasts is still one of the hallmarks of TGF-β activity. NRK-49 F fibroblasts were grown at 37° C. in DEM supplemented with 10% fetal calf serum. […] To this, either 100 nM TGF-β (positive control) or 100 nM cytomodulin was added. NRK49 F fibroblasts (5×10^4 cells/ml) were mixed with 0.3% agar were plated on the bottom of 35 mm culture dishes. Colony formation was observed starting on day 3 of culture.

[4] = test system: NRK-49 F normal rat kidney fibroblasts; settings: in the absence of EGF and PDGF; from Massagu, J. Biol. Chem. 259 (1984); cited from earlier work

Substance | Expression of TGF-β [1] | Expression of alkaline phosphatase [1] | Expression of type I collagen [1] | Inhibition of DNA synthesis / proliferation of Mv-1-Lu cells (in words) [2] | TGF-β like activity (TGF-β activity) | Expression of TGF-β (human dermal fibroblasts) | Expression of collagenase (human dermal fibroblasts) | Expression of type I collagen (human dermal fibroblasts) | Growth and colony formation of NRK-49F cells in soft agar (in words) [3] | Colony formation in soft agar [4] | Colony formation in soft agar ([3]; 100 nM, with EGF and PDGF)
L-I-A-E-A-K (LIAEAK; TGF-beta mimic) [L2] | increased the expression | increased the expression | increased the expression | inhibited the proliferation | at least as much TGF-β like activity as cytomodulin | increased the expression | decreased the expression | increased the expression | promoted the growth | – | –
TGF-β | – | – | – | – | – | – | – | – | – | does not induce colony formation | grew colonies
